Measured values published in patent publication US9365523B2, “Imidazolyl amide compounds and uses related thereto” (priority 2011, dated 2016).

What was measured:
[1] = system: MeV-Alaska; assay: Viral CPE-reduction assay
Description: To rapidly pre-screen small libraries of compound analogs for antiviral activity, Vero-SLAM cells were infected with MeV-Alaska in four replicates per compound concentration in a 96-well plate format at an MOI of 0.4 pfu/cell in the presence of the inhibitor analyzed ranging from 75 μM to 293 nM in two-fold dilutions. At 96 hours post-infection, cell monolayers were subjected to crystal violet staining (0.1% crystal violet in 20% ethanol), and the absorbance of dried plates at 560 nm determined. Virus-induced cytopathicity was then calculated according to the formula [% rel. CPE=100-(experimental-minimum)/(maximum-minimum)*100], with minimum referring to infected, vehicle-treated wells and maximum to mock-infected wells.

[2] = system: MeV-Alaska; assay: Virus yield reduction assay, MeV; format: cell-based, measles virus; settings: for EC50: Measles morbillivirus
[3] = system: influenza A/WSN (H1N1); assay: microbe, parasite or virus in culture; format: cell-based; settings: read-out: EC50, reduction of virus yield (WSN)
[4] = system: HPIV3; assay: Virus yield reduction assay, HPIV3; format: cell-based, human parainfluenzavirus type 3; settings: Human respirovirus 3
[5] = Measles morbillivirus, read-out: EC50, suppression of viral cytopathic effect (CPE), CPE

Row | SMILES | EC50 [1, 5] [nM] | other results
1 | CCN1CCCC1Cn1c(SC(C)C(=O)Nc2ccc(C)cc2Cl)nc2ccccc21 (stereo not drawn) [drawing 215] |  | EC50 ([1]; read-out: EC50, suppression of viral cytopathic effect (CPE), CPE): 5520 nM
2 | Cc1ccc(NC(=O)C(C)Sc2nc3ccccc3n2CCN2CCNCC2)c(Cl)c1 (stereo not drawn) | > 75000 | 
3 | Cc1ccc(NC(=O)C(C)Sc2nc3ccccc3n2CCN2CCOCC2)c(Cl)c1 (stereo not drawn) | 4850 | 
4 | Cc1ccc(NC(=O)[C@H](C)Sc2nc3ccccc3n2-c2ccccc2CN2CCN(C)CC2)c(Cl)c1 |  | EC50 ([2]; MeV): 685 nM; EC50 [3]: 4 nM; EC50 [4]: 16 nM
5 | CC(Sc1nc2ccccc2n1-c1ccc(CC=O)cc1)C(=O)Nc1ccccc1Cl (stereo not drawn) | 18800 | 
6 | COc1ccc(-n2c(SC(CCO)C(=O)Nc3ccccc3)nc3ccccc32)cc1 (stereo not drawn) | 27800 | 
7 | Cc1ccc(NC(=O)C(C)Sc2nc3ccccc3n2-c2ccc(CC=O)cc2)c(Cl)c1 (stereo not drawn) [drawing 225] | 8500 | 
8 | CCN1CCN(CCn2c(SC(C)C(=O)Nc3ccc(C)cc3Cl)nc3ccccc32)CC1 (stereo not drawn) | 18800 | 
9 | Cc1ccc(NC(=O)C(C)Sc2nc3ccccc3n2-c2cccc(CCN3CCOCC3)c2)c(Cl)c1 (stereo not drawn) |  | EC50 [2]: 12.9 nM; EC50 [3]: 0.3 nM
10 | Cc1ccc(NC(=O)C(C)Sc2nc3ccccc3n2-c2cccc(CCN(C)C)c2)c(Cl)c1 (stereo not drawn) | 1220 | 
11 | CCN1CCC(Cn2c(SC(C)C(=O)Nc3ccc(C)cc3Cl)nc3ccccc32)CC1 (stereo not drawn) | > 75000 | 
12 | Cc1ccc(NC(=O)C(C)Sc2nc3ccccc3n2-c2ccc(N3CCOCC3)cc2)c(Cl)c1 (stereo not drawn) [drawing 232] | 300 | 
13 | Cc1ccc(NC(=O)C(C)Sc2nc3ccccc3n2C2CC[N+](C)(C)CC2)c(Cl)c1 (stereo not drawn) | > 75000 | 
14 | COc1ccc(-n2c(S[C@@H](C)C(=O)Nc3ccc(C)cc3Cl)nc3ccccc32)cc1 |  | EC50 ([2]; MeV): 37.3 nM; EC50 [3]: 5 nM; EC50 [4]: 80 nM
15 | Cc1ccc(NC(=O)C(C)Sc2nc3ccccc3n2C2CCN(C(=O)OC(C)(C)C)CC2)c(Cl)c1 (stereo not drawn) [drawing 220] | 600 | 
16 | Cc1ccc(NC(=O)C(C)Sc2nc3ccccc3n2[C@H]2CC[C@H](O)CC2)c(Cl)c1 (stereo partly drawn) | 2740 | 
17 | Cc1ccc(NC(=O)[C@@H](C)Sc2nc3ccccc3n2-c2ccccc2CN2CCN(C)CC2)c(Cl)c1 |  | EC50 [2]: 466 nM; EC50 [3]: 120 nM
18 | Cc1ccc(NC(=O)C(C)Sc2nc3ccccc3n2CCN2CCN(C(C)c3ccc(F)cc3)CC2)c(Cl)c1 (stereo not drawn) | 2170 | 
19 | CC(Sc1nc2ccccc2n1-c1ccc(CCO)cc1)C(=O)Nc1ccccc1Cl (stereo not drawn) | 4680 | 

Row | SMILES | EC50 [1, 5] [nM] | other results
20 | CNCCc1ccc(-n2c(SC(C)C(=O)Nc3ccc(C)cc3Cl)nc3ccccc32)cc1 (stereo not drawn) [drawing 226] | 8720 | 
21 | O=C1Cc2c([nH]c3ccc([N+](=O)[O-])cc23)-c2ccccc2N1 [Alsterpaullone, reference compound] |  | reduction in MeV yields ([2]; highest concentration assessed (50 μM), Vero-Slam cells): only a marginal reduction
22 | Cc1ccc(NC(=O)C(C)Sc2nc3ccccc3n2C2CCN(C)CC2)c(Cl)c1 (stereo not drawn) [drawing 218] | 1500 | 
23 | Cc1ccc(NC(=O)C(C)Sc2nc3ccccc3n2C2CCNCC2)c(Cl)c1 (stereo not drawn) [drawing 219] | > 75000 | 
24 | Cc1ccc(NC(=O)C(C)Sc2nc3ccccc3n2-c2ccc(CCNC3CCN(C(=O)OC(C)(C)C)CC3)cc2)c(Cl)c1 (stereo not drawn) | 4680 | 
25 | Cc1ccc(NC(=O)C(C)Sc2nc3ccccc3n2-c2cccc(CCN3CCCCC3)c2)c(Cl)c1 (stereo not drawn) | 1520 | 
26 | Cc1ccc(NC(=O)C(C)Sc2nc3ccccc3n2-c2ccc(CCN3CCOCC3)cc2)c(Cl)c1 (stereo not drawn) |  | EC50 [2]: 111 nM; EC50 [3]: 43 nM
27 | Cc1ccc(NC(=O)C(C)Sc2nc3ccccc3n2-c2cccc(CO)c2)c(Cl)c1 (stereo not drawn) [drawing 230] | 700 | 
28 | Cc1ccc(NC(=O)C(C)Sc2nc3ccccc3n2-c2ccccc2CO)c(Cl)c1 (stereo not drawn) | 800 | 
29 | CCN1CCCC1Cn1c(SC(C)C(=O)Nc2ccc(C)cc2Cl)nc2ccccc21 (stereo not drawn) [drawing 214] | 3580 | 
30 | Cc1ccc(NC(=O)C(C)Sc2nc3ccccc3n2-c2ccc(CO)cc2)c(Cl)c1 (stereo not drawn) [drawing 229] | 3910 | 
31 | Cc1ccc(NC(=O)C(C)Sc2nc3ccccc3n2CC2CCN(C(C)c3ccc(F)cc3)CC2)c(Cl)c1 (stereo not drawn) | 1170 | 
32 | Cc1ccc(NC(=O)C(C)Sc2nc3ccccc3n2CCN2CCN(C(=O)OC(C)(C)C)CC2)c(Cl)c1 (stereo not drawn) | 1320 | 
33 | Cc1ccc(NC(=O)C(C)Sc2nc3ccccc3n2CC2CCNCC2)c(Cl)c1 (stereo not drawn) | > 75000 | 
34 | Cc1ccc(NC(=O)[C@@H](C)Sc2nc3ccccc3n2-c2cccc(CCN3CCOCC3)c2)c(Cl)c1 |  | EC50 [2]: 212 nM; EC50 [3]: 108 nM
35 | Cc1ccc(NC(=O)[C@H](C)Sc2nc3ccccc3n2-c2cccc(CCN3CCOCC3)c2)c(Cl)c1 |  | EC50 ([2]; MeV): 10.8 nM; EC50 [3]: 1.5 nM; EC50 [4]: 16 nM
36 | Cc1ccc(NC(=O)C(C)Sc2nc3ccccc3n2-c2ccc(CCNCCN3CCOCC3)cc2)c(Cl)c1 (stereo not drawn) | 1910 | 
37 | Cc1ccc(NC(=O)C(C)Sc2nc3ccccc3n2C2CCCN(CCO)C2)c(Cl)c1 (stereo not drawn) | 10000 | 
38 | Cc1ccc(NC(=O)C(C)Sc2nc3ccccc3n2N2CCN(C)CC2)c(Cl)c1 (stereo not drawn) | > 75000 | 
